# Assay results from patent US10759781B2, “Substituted guanidine derivatives” (UBE INDUSTRIES, LTD., priority 2015, dated 2020).
# Structures can show the parent of a compound that is named as a salt.
# Molecular target: T1, Human VAP-1 enzyme (Homo sapiens, UniProt Q16853)
# T1 construct: purchased R&D Systems, Inc
# T1 sequence (Q16853 1-763): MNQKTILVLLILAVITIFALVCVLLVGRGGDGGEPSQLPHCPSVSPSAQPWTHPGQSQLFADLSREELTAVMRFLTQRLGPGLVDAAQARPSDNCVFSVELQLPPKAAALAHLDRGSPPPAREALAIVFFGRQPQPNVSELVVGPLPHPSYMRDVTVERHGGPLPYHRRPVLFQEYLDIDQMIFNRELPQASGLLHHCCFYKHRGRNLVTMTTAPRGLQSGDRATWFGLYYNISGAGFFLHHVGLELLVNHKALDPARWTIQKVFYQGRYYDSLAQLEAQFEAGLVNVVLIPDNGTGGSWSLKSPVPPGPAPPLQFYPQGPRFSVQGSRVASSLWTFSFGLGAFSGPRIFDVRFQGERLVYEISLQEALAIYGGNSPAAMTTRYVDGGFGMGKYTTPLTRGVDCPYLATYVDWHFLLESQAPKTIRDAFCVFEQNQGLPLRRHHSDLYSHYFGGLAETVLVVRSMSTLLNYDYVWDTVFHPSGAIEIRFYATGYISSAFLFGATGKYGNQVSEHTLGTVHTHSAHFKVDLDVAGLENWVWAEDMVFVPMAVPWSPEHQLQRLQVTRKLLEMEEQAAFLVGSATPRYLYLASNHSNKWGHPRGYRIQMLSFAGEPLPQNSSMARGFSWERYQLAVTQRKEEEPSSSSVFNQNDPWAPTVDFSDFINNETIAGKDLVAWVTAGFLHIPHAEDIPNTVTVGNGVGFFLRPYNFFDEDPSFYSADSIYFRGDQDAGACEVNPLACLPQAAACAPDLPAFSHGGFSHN
# Assay: Human VAP-1 enzyme inhibition test
# Type: biochemical
# Conditions: 1 h; compound 30 nM; 14C-benzylamine 100 μM; read-out: inhibition ratio (human VAP-1 enzyme)
# Description: Human VAP-1 enzyme inhibition test
# This test was conducted by modifying the method of P. H. Yu et al. (Diabetologia 40 1243 (1997)). Human VAP-1 enzyme (R&D Systems, Inc.) was pre-incubated in a 96-well plate with the compound dissolved in dimethylsulfoxide at room temperature for 20 minutes. Next, in a solution to the final volume of 200 μL, the enzyme reaction solution was incubated with ^14C-benzylamine (final concentration 100 μM) at 37° C. for 1 hour. The reaction was terminated by the addition of 100 μL of 2 M citric acid solution to the reaction solution. The oxidative product was extracted using a toluene/ethyl acetate mixture and the radioactivity was measured with a liquid scintillation counter. The inhibition ratio of the compound was calculated using the following equation. Inhibition ratio={1−[VAP-1 enzyme activity after treatment with the compound]/[VAP-1 enzyme activity in the presence of dimethylsulfoxide alone without the compound]}×100
row,inhibition at 0.03 µM [%],SMILES
1,≥ 50,"N=C(N)NC(=O)OCc1cccc(-c2cnc(N3CC(=NOCC(F)F)C3)nc2)c1F [Example 6, 3-(2-{3-[(2,2-Difluoroethoxy)imino]azetidin-1-yl}pyrimidin-5-yl)-2-fluorobenzyl carbamimidoylcarbamate]"
2,≥ 50,"N=C(N)NC(=O)OCc1cccc(-c2cnc(N3CC(=NOCC(F)(F)F)C3)nc2)c1F [Example 7, 2-Fluoro-3-(2-{3-[(2,2,2-trifluoroethoxy)imino]azetidin-1-yl}pyrimidin-5-yl)benzyl carbamimidoylcarbamate]"
3,≥ 50,"N=C(N)NC(=O)OCc1cccc(-c2cnc(N3CC(=NOCCCF)C3)nc2)c1F [Example 8, 2-Fluoro-3-(2-{3-[(3-fluoropropoxy)imino]azetidin-1-yl}pyrimidin-5-yl)benzyl carbamimidoylcarbamate]"
4,≥ 50,"CC(=O)OCCON=C1CN(c2ncc(-c3cccc(COC(=O)NC(=N)N)c3F)cn2)C1 [Example 25, 2-[({1-[5-(3-{[(Carbamimidoylcarbamoyl)oxy]methyl}-2-fluorophenyl)pyrimidin-2-yl]azetidin-3-ylidene}amino)oxy]ethyl acetate]"
5,≥ 50,"CON=C1CN(c2ncc(-c3cccc(COC(=O)NC(=N)N)c3F)cc2C#N)C1 [Example 43, 3-{5-Cyano-6-[3-(methoxyimino)azetidin-1-yl]pyridin-3-yl}-2-fluorobenzyl carbamimidoylcarbamate]"
6,≥ 50,"CON=C1CN(c2ncc(-c3cccc(COC(=O)NC(=N)N)c3F)cc2Cl)C1 [Example 44, 3-{5-Chloro-6-[3-(methoxyimino)azetidin-1-yl]pyridin-3-yl}-2-fluorobenzyl carbamimidoylcarbamate]"
7,≥ 50,"CON=C1CN(c2ncc(-c3cccc(COC(=O)NC(=N)N)c3F)cc2C(F)F)C1 [Example 45, 3-{5-(Difluoromethyl)-6-[3-(methoxyimino)azetidin-1-yl]pyridin-3-yl}-2-fluorobenzyl carbamimidoylcarbamate]"
8,≥ 50,"CON=C1CN(c2ncc(-c3cccc(COC(=O)NC(=N)N)c3F)cc2C2CC2)C1 [Example 46, 3-{5-Cyclopropyl-6-[3-(methoxyimino)azetidin-1-yl]pyridin-3-yl}-2-fluorobenzyl carbamimidoylcarbamate]"
9,≥ 50,"CCc1cc(-c2cccc(COC(=O)NC(=N)N)c2F)cnc1N1CC(=NOC)C1 [Example 47, 3-{5-Ethyl-6-[3-(methoxyimino)azetidin-1-yl]pyridin-3-yl}-2-fluorobenzyl carbamimidoylcarbamate]"
10,≥ 50,"COCc1cc(-c2cccc(COC(=O)NC(=N)N)c2F)cnc1N1CC(=NOC)C1 [Example 49, 2-Fluoro-3-{6-[3-(methoxyimino)azetidin-1-yl]-5-(methoxymethyl)pyridin-3-yl}benzyl carbamimidoylcarbamate]"
11,≥ 50,"CON=C1CN(c2ncc(-c3cccc(COC(=O)NC(=N)N)c3F)cc2OC)C1 [Example 50, 2-Fluoro-3-{5-methoxy-6-[3-(methoxyimino)azetidin-1-yl]pyridin-3-yl}benzyl carbamimidoylcarbamate]"
12,≥ 50,"N=C(N)NC(=O)OCc1cccc(-c2cnc(N3CC(=NOCCO)C3)nc2)c1F [Example 71, 2-Fluoro-3-(2-{3-[(2-hydroxyethoxy)imino]azetidin-1-yl}pyrimidin-5-yl)benzyl carbamimidoylcarbamate hydrochloride]"
13,≥ 50,"N=C(N)NC(=O)OCc1cccc(-c2cnc(N3CC(=NOCCOCCO)C3)nc2)c1F [Example 74, 2-Fluoro-3-[2-(3-{[2-(2-hydroxyethoxy)ethoxy]imino}azetidin-1-yl)pyrimidin-5-yl]benzyl carbamimidoylcarbamate]"
14,≥ 50,"N=C(N)NC(=O)OCc1cccc(-c2cnc(N3CC(=NOCC(CO)CF)C3)nc2)c1F (stereo not drawn) [Example 75, 2-Fluoro-3-[2-(3-{[3-fluoro-2-(hydroxymethyl)propoxy]imino}azetidin-1-yl)pyrimidin-5-yl]benzyl carbamimidoylcarbamate]"
15,≥ 50,"CC(=O)OCC(CO)CON=C1CN(c2ncc(-c3cccc(COC(=O)NC(=N)N)c3F)cn2)C1 (stereo not drawn) [Example 77, 3-[({1-[5-(3-{[(Carbamimidoylcarbamoyl)oxy]methyl}-2-fluorophenyl)pyrimidin-2-yl]azetidin-3-ylidene}amino)oxy]-2-(hydroxymethyl)propyl acetate]"
16,≥ 50,"N=C(N)NC(=O)OCc1cccc(-c2cnc(N3CC(=NOCC(CO)CO)C3)nc2)c1F [Example 92, 2-Fluoro-3-[2-(3-{[3-hydroxy-2-(hydroxymethyl)propoxy]imino}azetidin-1-yl)pyrimidin-5-yl]benzyl carbamimidoylcarbamate]"
17,≥ 50,"N=C(N)NC(=O)OCc1cccc(-c2cnc(N3CC(=NOCC(O)CO)C3)nc2)c1F (stereo not drawn) [Example 93, 3-(2-{3-[(2,3-Dihydroxypropoxy)imino]azetidin-1-yl}pyrimidin-5-yl)-2-fluorobenzyl carbamimidoylcarbamate]"
18,≥ 50,"COCC(CO)CON=C1CN(c2ncc(-c3cccc(COC(=O)NC(=N)N)c3F)cn2)C1 (stereo not drawn) [Example 100, 2-Fluoro-3-[2-(3-{[3-hydroxy-2-(methoxymethyl)propoxy]imino}azetidin-1-yl)pyrimidin-5-yl]benzyl carbamimidoylcarbamate]"
19,≥ 50,"N=C(N)NC(=O)OCc1cccc(-c2cnc(N3CC(=NOCC(F)CO)C3)c(F)c2)c1F (stereo not drawn) [Example 103, 2-Fluoro-3-(5-fluoro-6-{3-[(2-fluoro-3-hydroxypropoxy)imino]azetidin-1-yl}pyridin-3-yl)benzyl carbamimidoylcarbamate]"
20,≥ 50,"COCC(O)CON=C1CN(c2ncc(-c3cccc(COC(=O)NC(=N)N)c3F)cn2)C1 (stereo not drawn) [Example 104, 2-Fluoro-3-(2-{3-[(2-hydroxy-3-methoxypropoxy)imino]azetidin-1-yl}pyrimidin-5-yl)benzyl carbamimidoylcarbamate]"
21,≥ 50,"N=C(N)NC(=O)OCc1cccc(-c2cnc(N3CC(=NO)C3)c(F)c2)c1F [Example 107, 2-Fluoro-3-{5-fluoro-6-[3-(hydroxyimino)azetidin-1-yl]pyridin-3-yl}benzyl carbamimidoylcarbamate]"
22,≥ 50,"CC(C)(C)OC(=O)CON=C1CN(c2ncc(-c3cccc(COC(=O)NC(=N)N)c3F)cn2)C1 [Example 108, tert-Butyl 2-[({1-[5-(3-{[(carbamimidoylcarbamoyl)oxy]methyl}-2-fluorophenyl)pyrimidin-2-yl]azetidin-3-ylidene}amino)oxy]acetate]"

row,SMILES,inhibition at 0.03 µM [%]
1,"N=C(N)NC(=O)OCc1cccc(-c2cnc(N3CC(=NOCCCCO)C3)nc2)c1F [Example 73, 2-Fluoro-3-(2-{3-[(4-hydroxybutoxy)imino]azetidin-1-yl}pyrimidin-5-yl)benzyl carbamimidoylcarbamate]",≥ 50
2,"COC(CO)CCON=C1CN(c2ncc(-c3cccc(COC(=O)NC(=N)N)c3F)cn2)C1 (stereo not drawn) [Example 76, 2-Fluoro-3-(2-{3-[(4-hydroxy-3-methoxybutoxy)imino]azetidin-1-yl}pyrimidin-5-yl)benzyl carbamimidoylcarbamate]",≥ 50
